Activity calls are given as the source filed them. No cut-off for these calls is given here.
Assays:
[1] = target: T1, Androgen receptor (Homo sapiens, UniProt P10275); experiment: Inhibition of AR transcriptional activity in human LNCaP cells harboring ARR2PB-eGFP incubated for 72 hrs by fluorescence assay; type: cell-based
T1 sequence (P10275 whole entry): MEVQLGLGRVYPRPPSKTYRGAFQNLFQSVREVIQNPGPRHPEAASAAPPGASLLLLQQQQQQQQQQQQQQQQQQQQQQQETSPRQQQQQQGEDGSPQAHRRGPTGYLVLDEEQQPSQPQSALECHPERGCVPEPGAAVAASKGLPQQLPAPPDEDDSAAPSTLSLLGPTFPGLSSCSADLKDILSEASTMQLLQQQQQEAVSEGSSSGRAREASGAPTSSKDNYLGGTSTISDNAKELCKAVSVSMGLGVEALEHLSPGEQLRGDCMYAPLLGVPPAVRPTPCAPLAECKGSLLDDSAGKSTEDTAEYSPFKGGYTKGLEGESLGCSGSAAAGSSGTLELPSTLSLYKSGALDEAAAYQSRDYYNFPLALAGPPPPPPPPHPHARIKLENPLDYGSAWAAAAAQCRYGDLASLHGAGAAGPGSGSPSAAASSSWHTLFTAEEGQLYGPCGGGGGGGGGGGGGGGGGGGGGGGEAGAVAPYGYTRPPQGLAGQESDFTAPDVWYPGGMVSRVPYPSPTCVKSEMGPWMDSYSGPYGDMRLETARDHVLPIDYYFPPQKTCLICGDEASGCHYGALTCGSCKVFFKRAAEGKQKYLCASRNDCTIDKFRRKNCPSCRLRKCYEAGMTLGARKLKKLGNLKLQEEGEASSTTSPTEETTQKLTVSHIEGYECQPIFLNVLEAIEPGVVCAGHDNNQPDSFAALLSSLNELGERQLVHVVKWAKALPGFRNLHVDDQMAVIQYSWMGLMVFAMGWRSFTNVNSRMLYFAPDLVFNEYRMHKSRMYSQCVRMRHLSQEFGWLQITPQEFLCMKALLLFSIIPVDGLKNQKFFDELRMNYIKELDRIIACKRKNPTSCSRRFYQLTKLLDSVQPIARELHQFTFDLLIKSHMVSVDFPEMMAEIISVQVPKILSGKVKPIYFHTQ

[2] = system: CWR22R; experiment: Cytotoxicity against human 22Rv1 cells assessed as reduction in cell viability incubated for 72 hrs by MTT assay; type: functional, cell-based
[3] = target: T2, Androgen receptor (Homo sapiens) (UniProt P10275); experiment: Antagonist activity at androgen receptor in human LNCaP cells assessed as reduction in DHT-induced TMPRSS2 mRNA expression after 48 hrs by SYBR green dye based qPCR analysis; type: cell-based; details: filed as antagonist, dose 0.1-10 µM
T2 sequence (whole entry): T1 sequence (P10275 whole entry)

[4] = target: T2, Androgen receptor (Homo sapiens); experiment: Antagonist activity at androgen receptor in human LNCaP cells assessed as reduction in DHT-induced AR protein expression at 0.1 to 10 uM after 48 hrs by Western blot analysis; type: cell-based; details: dose 0.1-10 µM
[5] = system: HepG2; experiment: Cytotoxicity against human HepG2 cells assessed as reduction in cell viability at low concentration incubated for 72 hrs by MTT assay; type: functional, cell-based
[6] = system: HeLa; experiment: Cytotoxicity against human HeLa cells assessed as reduction in cell viability at low concentration incubated for 72 hrs by MTT assay; type: functional, cell-based
[7] = target: T3, Glucocorticoid receptor (Homo sapiens) (UniProt P04150); experiment: Agonist activity at glucocorticoid receptor in human HeLa cells by dual-Glo luciferase assay; type: cell-based
T3 sequence (whole entry): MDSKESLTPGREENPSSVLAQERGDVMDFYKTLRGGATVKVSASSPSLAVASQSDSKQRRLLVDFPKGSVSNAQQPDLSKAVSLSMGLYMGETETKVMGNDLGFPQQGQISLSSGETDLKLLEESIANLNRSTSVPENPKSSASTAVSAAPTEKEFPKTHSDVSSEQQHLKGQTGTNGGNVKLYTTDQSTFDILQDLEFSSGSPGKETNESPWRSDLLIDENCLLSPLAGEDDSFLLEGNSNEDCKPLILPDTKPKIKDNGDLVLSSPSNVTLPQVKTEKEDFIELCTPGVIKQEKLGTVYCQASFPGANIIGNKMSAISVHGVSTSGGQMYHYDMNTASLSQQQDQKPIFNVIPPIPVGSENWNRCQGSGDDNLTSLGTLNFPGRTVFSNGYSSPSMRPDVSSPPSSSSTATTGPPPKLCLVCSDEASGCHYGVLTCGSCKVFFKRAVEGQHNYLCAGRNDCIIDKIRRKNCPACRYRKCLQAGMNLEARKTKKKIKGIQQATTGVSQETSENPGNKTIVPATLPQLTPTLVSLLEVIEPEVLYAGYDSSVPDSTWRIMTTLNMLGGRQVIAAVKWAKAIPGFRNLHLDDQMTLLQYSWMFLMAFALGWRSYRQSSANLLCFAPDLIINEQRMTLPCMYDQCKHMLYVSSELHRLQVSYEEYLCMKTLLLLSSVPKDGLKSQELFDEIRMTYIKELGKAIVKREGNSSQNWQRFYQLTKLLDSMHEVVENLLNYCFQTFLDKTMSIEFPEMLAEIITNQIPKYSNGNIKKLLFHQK

[8] = target: T4, Progesterone receptor (Homo sapiens) (UniProt P06401); experiment: Agonist activity at progesterone receptor in human HEK293T cells by dual-Glo luciferase assay; type: cell-based
T4 sequence (whole entry): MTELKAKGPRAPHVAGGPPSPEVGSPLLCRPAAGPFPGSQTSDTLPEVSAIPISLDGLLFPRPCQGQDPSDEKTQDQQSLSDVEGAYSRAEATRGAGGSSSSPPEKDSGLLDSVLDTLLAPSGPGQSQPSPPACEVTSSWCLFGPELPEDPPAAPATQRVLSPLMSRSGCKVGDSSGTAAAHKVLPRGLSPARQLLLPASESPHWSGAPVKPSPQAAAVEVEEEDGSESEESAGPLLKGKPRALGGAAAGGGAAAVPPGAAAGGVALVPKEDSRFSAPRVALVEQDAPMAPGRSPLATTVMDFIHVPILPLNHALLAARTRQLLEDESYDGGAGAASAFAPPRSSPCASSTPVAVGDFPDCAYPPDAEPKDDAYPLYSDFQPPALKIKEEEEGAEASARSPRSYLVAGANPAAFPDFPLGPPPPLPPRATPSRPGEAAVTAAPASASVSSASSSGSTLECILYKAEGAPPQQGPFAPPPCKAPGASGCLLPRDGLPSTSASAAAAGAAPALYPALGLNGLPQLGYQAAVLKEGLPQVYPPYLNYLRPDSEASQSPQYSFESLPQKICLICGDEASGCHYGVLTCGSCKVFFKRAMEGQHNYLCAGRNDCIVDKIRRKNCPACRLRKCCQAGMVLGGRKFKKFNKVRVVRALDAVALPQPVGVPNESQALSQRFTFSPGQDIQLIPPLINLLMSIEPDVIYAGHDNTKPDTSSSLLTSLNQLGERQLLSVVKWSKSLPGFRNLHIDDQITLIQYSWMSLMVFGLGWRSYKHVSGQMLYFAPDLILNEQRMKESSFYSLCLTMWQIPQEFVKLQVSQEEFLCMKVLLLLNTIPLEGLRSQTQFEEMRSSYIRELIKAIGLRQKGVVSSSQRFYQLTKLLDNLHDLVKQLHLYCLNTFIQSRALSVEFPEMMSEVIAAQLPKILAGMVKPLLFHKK

- IC50 [1]: 170 nM
- Activity [3]: Dose-dependent effect
- Activity [4]: inactive
- Activity [7]: inactive
- Activity [8]: inactive
SMILES: O=c1cc(C(F)(F)F)c2ccc(OCc3ccc(Br)cc3)cc2o1
- Activity [2]: Active
- Activity [5]: inactive
- Activity [6]: inactive

Source: ChEMBL document CHEMBL5055679, “Discovery of a Novel Androgen Receptor Antagonist Manifesting Evidence to Disrupt the Dimerization of the Ligand-Binding Domain via Attenuating the Hydrogen-Bonding Network Between the Two Monomers” (J Med Chem, 2021)
